The text below walks through data of patent publication US12150935B1, “3-(3-(1,3-dioxoisoindolin-2-yl) propyl)-5-(4-fluorobenzylidene) thiazolidine-2,4-dione as a potential antitumor and apoptotic inducer” (IMAM MOHAMMAD IBN SAUD ISLAMIC UNIVERSITY, priority 2024, dated 2024).

Molecules are shown by their SMILES.

Data set [1] deals with human oral epithelial normal cell line (OEC). The data set is described as follows: Growth inhibition of normal cells, OEC. Type of data set: cell-based. The following applies: 100 μg/mL, in vitro, read-out: growth inhibition percentage. As to the method:
(§1) The compound of Formula I was tested for its antitumor activity against various cancer cell lines, in vitro, in non-small cell lung cancer (A549), colorectal carcinoma (HCT116), prostate cancer (PC3), pharynx squamous carcinoma (FaDu), triple-negative breast cancer (MDA-MB-468), cervical cancer (HeLa), and human oral epithelial normal cell line (OEC).

In data set [2] the test system is triple-negative breast cancer (MDA-MB-468). The data set is described as follows: Growth inhibition of cancerous cells, MDA-MB-468. It counts as cell-based. Conditions: Homo sapiens, concentration of 100 μg/mL, in vitro, read-out: growth inhibition percentage. As to the method:
as §1

In data set [3] the test system is colorectal carcinoma (HCT116). The data set is described as follows: Growth inhibition of cancerous cells, HCT116. It counts as cell-based. The following applies: Homo sapiens, HCT-116, concentration of 100 μg/mL, in vitro, read-out: growth inhibition percentage. How it is done:
as §1

Data set [4] deals with pharynx squamous carcinoma (FaDu). The data set is described as follows: Growth inhibition of cancerous cells, FaDu. Type of data set: cell-based. The following applies: Homo sapiens, concentration of 100 μg/mL, in vitro, read-out: growth inhibition percentage. As to the method:
as §1

The test system of data set [5] is prostate cancer (PC3). The data set is described as follows: Growth inhibition of cancerous cells, PC3. It counts as cell-based. The following applies: Homo sapiens, concentration of 100 μg/mL, in vitro, read-out: growth inhibition percentage. As to the method:
as §1

The test system of data set [6] is cervical cancer (HeLa). The data set is described as follows: Growth inhibition of cancerous cells, HeLa. It counts as cell-based. Conditions: Homo sapiens, concentration of 100 μg/mL, in vitro, read-out: growth inhibition percentage. As to the method: as §1
Data set [7] concerns human non-small cell lung cancer (A549). The data set is described as follows: Growth inhibition of cancerous cells, A549. Conditions: concentration of 100 μg/mL, in vitro, read-out: growth inhibition percentage. It counts as cell-based. How it is done:
as §1

Broadly, the inhibition is how much of the control response was suppressed. In the case of `COc1cccc2c1C(=O)c1c(O)c3c(c(O)c1C2=O)C[C@@](O)(C(=O)CO)C[C@@H]3O[C@H]1C[C@H](N)[C@H](O)[C@H](C)O1` [doxorubicin, reference compound], the inhibition at 100 µg/mL in data set [1] was determined as 57.9%.
What is called melting point is the temperature of the solid-liquid transition. Compound `O=C1S/C(=C/c2ccc(F)cc2)C(=O)N1CCCN1C(=O)c2ccccc2C1=O` [Formula I, 3-(3-(1,3-Dioxoisoindolin-2-yl)propyl)-5-(4-fluorobenzylidene) thiazolidine-2,4-dione] came in with a melting point of 233 to 234 °C. In data set [2], the inhibition at 100 µg/mL was 87.8%. Moreover, in data set [3], the inhibition at 100 µg/mL stood at 79.3%. For the same compound, the inhibition at 100 µg/mL in data set [4] turned out to be 86.8%. Further, in data set [5], the inhibition at 100 µg/mL worked out at 84.3%. Moreover, the inhibition at 100 µg/mL in data set [1] is 61.2%. The inhibition at 100 µg/mL in data set [6] came out at 73.1%. Also, the inhibition at 100 µg/mL in data set [7] was 79.1%.
